# Laboratory results: US5149365A, “Diorganotin compounds, and agents which have a bactericidal and fungicidal action and contain these compounds” (Schering Aktiengesellschaft, priority 1988, dated 1992)
# Counter-ions that a name gives are not always drawn.
# Assays:
# [1] = test system: Orfes; test: EC50 in Orfes (DIN 38412, Part 15); assay type: in vivo
# Source text: *Determination in accordance with DIN 38412, Part 15
# [2] = test system: Escherichia coli; test: Agar diffusion test, Escherichia coli; assay type: cell-based; conditions: 0: no inhibition action
# Method: (§1) DST agar was inoculated with 1 drop of a Muller-Hinton broth of the test organisms, diluted 1 : 10. After a prediffusion period of 2 hours at 22° C., the paper filters which had been soaked with solutions of active substance of various concentrations were placed on the agar. The inhibition zones (distance of the cloudy area from the edge of the paper filter in mm) were determined after an incubation time of 24 hours.
# [3] = test system: Cladosporum herbarum; test: Filter disk test, Cladosporum herbarum; assay type: cell-based; conditions: 3 weeks, +30° C.
# Method: (§2) The inhibition action against fungi, of the products according to the invention, was tested using the "filter disk test" (cf. Table 2). For this purpose, paper filter disks (.phi. 5.5 cm) were soaked in ethanolic solutions containing various amounts of active substance. After the filters had dried under room conditions, they were placed on Petri dishes containing plate-count agar which had been inoculated with a spore suspension. The nutrient medium used was biomalt agar 8° Bg, and the dishes were incubated for 3 weeks at +30° C. Thereafter, the sizes of the inhibition zones (distance of the fungal growth from the edge of the filter, in mm) around the samples were determined.
# [4] = test system: Paecilomyces varioti; test: Filter disk test, Paecilomyces varioti; assay type: cell-based; conditions: 3 weeks, +30° C.
# Method: as §2
# [5] = Weight loss (release) on storage, 6 days at 65° C.; assay type: physicochemical; conditions: for Weight loss: 6 days 65° C.
# Method: As shown by the comparison above, the amount released into the environment during a storage period of 6 days at 65° C. of, for example, TBT-HDO, is nearly six times higher than in the case of DBT-HDO according to the invention.
# [6] = test system: Lentinus lepideus; test: Filter disk test, Lentinus lepideus; assay type: cell-based; conditions: 3 weeks, +30° C.
# Method: as §2
# [7] = test system: Coniophora puteana; test: Wood block test against Coniophora puteana after leaching treatment (DIN 52 176, DIN EN 84); conditions: lower: highest amount with attack (weight loss>3%); higher: lowest amount without attack; 16 weeks, 22° C.
# Source text: To compare the fungicidal action against Basidiomycetes, small blocks made of pine sapwood (5 cm×2.5 cm×1.5 cm, direction of fiber: 5 cm) were soaked with solutions of graduated concentrations of the active substance DBT-HDO (cf. Example 1) in acetone, based on DIN 52 176.
# For comparison reasons, the starting materials di-n-butyltin dichloride and the K salt of N-cyclohexyl-N'-hydroxydiazenium oxide were included in the investigations.
# The soaked blocks were kept for 4 weeks in an environmentally-controlled chamber at an air temperature of 20° C. and a relative atmospheric humidity of 65%. They were then subjected to a leaching procedure in accordance with DIN EN 84. […] The effect of the fungi on the individual blocks was determined by calculating the weight losses (based on the dry weights). The limits which were determined in this way and which are expressed by two figures, the lower of which being the highest amount of protective agent (in kg/m^3 of wood) at which an attack still took place (weight loss>3%), and the higher denoting the lowest amount from which an attack no longer took place, are listed in Table 3.
# [8] = test system: Poria monticola; test: Filter disk test, Poria monticola; assay type: cell-based; conditions: 3 weeks, +30° C.
# Method: as §2
# [9] = test system: Proteus vulgaris; test: Agar diffusion test, Proteus vulgaris; assay type: cell-based; conditions: 0: no inhibition action
# Method: as §1
# [10] = test system: Staphilococcus aureaus; test: Agar diffusion test, Staphilococcus aureaus; assay type: cell-based; conditions: 0: no inhibition action
# Method: as §1
# [11] = test system: Bacillus subtilis; test: Agar diffusion test, Bacillus subtilis; assay type: cell-based; conditions: 0: no inhibition action
# Method: as §1
# [12] = test system: Daphnia; test: EC50 in Daphnia (DIN 38412, Part 12); assay type: in vivo
# Source text: **Determination in accordance with DIN 38412, Part 12.
# [13] = test system: rats; test: LD50 oral (rats); assay type: in vivo
# [14] = test system: bacteria and fungi; conditions: prior art; cited from earlier work
# [15] = 0.1% active substance in soaking solution
# [16] = 0.3% active substance in soaking solution
# [17] = 0.5% active substance in soaking solution
smiles,measurement,setting,value
"CCC[CH2][Sn]([CH2]CCC)([O]N(N=O)C1CCCCC1)[O]N(N=O)C1CCCCC1 [DBT-HDO, bis(N-cyclohexyldiazeniumdioxy)di-n-butyltin]",EC50 in Orfes,[1],0.18 mg/l of water
same,inhibition zone,[2]; [15],0 mm
same,inhibition zone,[2]; [16],2 mm
same,inhibition zone,[2]; [17],3 mm
same,inhibition zone (IZ),[3]; 0.5% content of the solution,3-5 mm
same,inhibition zone (IZ),[3]; 1% content of the solution,5-6 mm
same,inhibition zone (IZ),[3]; 2% content of the solution,8-10 mm
same,inhibition zone (IZ),[4]; 0.5% content of the solution,6-8 mm
same,inhibition zone (IZ),[4]; 1% content of the solution,8-10 mm
same,inhibition zone (IZ),[4]; 2% content of the solution,10-12 mm
same,Weight loss,[5],2.3%
same,inhibition zone (IZ),[6]; 0.5% content of the solution,> 15 mm
same,inhibition zone (IZ),[6]; 1% content of the solution,> 15 mm
same,inhibition zone (IZ),[6]; 2% content of the solution,> 15 mm
same,Limits against Coniophora puteana after leaching treatment,[7],0.51-0.88 kg of product per m^3 of wood
same,inhibition zone (IZ),[8]; 0.5% content of the solution,6-8 mm
same,inhibition zone (IZ),[8]; 1% content of the solution,12-12 mm
same,inhibition zone (IZ),[8]; 2% content of the solution,12-15 mm
same,inhibition zone,[9]; [15],12 mm
same,inhibition zone,[9]; [16],13 mm
same,inhibition zone,[9]; [17],12 mm
same,inhibition zone,[10]; [15],8 mm
same,inhibition zone,[10]; [16],10 mm
same,inhibition zone,[10]; [17],10 mm
same,inhibition zone,[11]; [15],6 mm
same,inhibition zone,[11]; [16],11 mm
same,inhibition zone,[11]; [17],15 mm
same,EC50 in Daphnia,[12],4.9 mg/l of water
"CCCCCCC[CH2][Sn]([CH2]CCCCCCC)([O]N(N=O)C1CCCCC1)[O]N(N=O)C1CCCCC1 [DOT-HDO, bis(N-cyclohexyldiazeniumdioxy)di-n-octyltin]",inhibition zone (IZ),[3]; 0.5% content of the solution,10-12 mm
same,inhibition zone (IZ),[3]; 1% content of the solution,12-15 mm
same,inhibition zone (IZ),[3]; 2% content of the solution,> 15 mm
same,inhibition zone (IZ),[4]; 0.5% content of the solution,5-6 mm
same,inhibition zone (IZ),[4]; 1% content of the solution,8-10 mm
same,inhibition zone (IZ),[4]; 2% content of the solution,10-12 mm
same,inhibition zone (IZ),[6]; 0.5% content of the solution,> 15 mm
same,inhibition zone (IZ),[6]; 1% content of the solution,> 15 mm
same,inhibition zone (IZ),[6]; 2% content of the solution,> 15 mm
same,inhibition zone (IZ),[8]; 0.5% content of the solution,5-6 mm
same,inhibition zone (IZ),[8]; 1% content of the solution,8-10 mm
same,inhibition zone (IZ),[8]; 2% content of the solution,8-10 mm
"CCCC[CH2][Sn]([CH2]CCCC)([O]N(N=O)C1CCCCC1)[O]N(N=O)C1CCCCC1 [DPT-HDO, bis(N-cyclohexyldiazeniumdioxy)di-n-pentyltin]",inhibition zone (IZ),[3]; 0.5% content of the solution,2-3 mm
same,inhibition zone (IZ),[3]; 1% content of the solution,5-7 mm
same,inhibition zone (IZ),[3]; 2% content of the solution,6-8 mm
same,inhibition zone (IZ),[4]; 0.5% content of the solution,6-8 mm
same,inhibition zone (IZ),[4]; 1% content of the solution,8-10 mm
same,inhibition zone (IZ),[4]; 2% content of the solution,10-12 mm
same,inhibition zone (IZ),[6]; 0.5% content of the solution,> 15 mm
same,inhibition zone (IZ),[6]; 1% content of the solution,> 15 mm
same,inhibition zone (IZ),[6]; 2% content of the solution,> 15 mm
same,inhibition zone (IZ),[8]; 0.5% content of the solution,6-8 mm
same,inhibition zone (IZ),[8]; 1% content of the solution,8-10 mm
same,inhibition zone (IZ),[8]; 2% content of the solution,10-12 mm
CCC[CH2][Sn]([Cl])([Cl])[CH2]CCC [Di-n-butyltin dichloride],Growth,[6]; 1% content of the solution,+ +
"[O-][N+](=NO)C1CCCCC1 [K-HDO, potassium salt of N-cyclohexyl-N'-hydroxydiazenium oxide]",zone of inhibition at 0.1 % strength,"[2]; Escherichia coli, 24 h, 0.1% active substance in soaking solution",0 mm
same,zone of inhibition at 0.3 % strength,"[2]; Escherichia coli, 24 h, 0.3% active substance in soaking solution",0 mm
same,zone of inhibition at 0.5 % strength,"[2]; Escherichia coli, 24 h, 0.5% active substance in soaking solution",0 mm
same,zone of inhibition at 0.5 %,"[3]; 504 h, 0.5% content of the solution, read-out: inhibition zone (IZ)",4 to 6 mm
same,zone of inhibition at 1 %,"[3]; 504 h, 1% content of the solution, read-out: inhibition zone (IZ)",8 to 10 mm
same,zone of inhibition at 2 %,"[3]; 504 h, 2% content of the solution, read-out: inhibition zone (IZ)",10 to 12 mm
same,zone of inhibition at 0.5 %,"[4]; Paecilomyces, 504 h, 0.5% content of the solution, read-out: inhibition zone (IZ)",5 to 7 mm
same,zone of inhibition at 1 %,"[4]; Paecilomyces, 504 h, 1% content of the solution, read-out: inhibition zone (IZ)",6 to 8 mm
same,zone of inhibition at 2 %,"[4]; Paecilomyces, 504 h, 2% content of the solution, read-out: inhibition zone (IZ)",8 to 10 mm
same,zone of inhibition at 0.5 %,"[6]; Neolentinus lepideus, 504 h, 0.5% content of the solution, read-out: inhibition zone (IZ)",4 to 6 mm
same,zone of inhibition at 1 %,"[6]; Neolentinus lepideus, 504 h, 1% content of the solution, read-out: inhibition zone (IZ)",10 to 12 mm
same,zone of inhibition at 2 %,"[6]; Neolentinus lepideus, 504 h, 2% content of the solution, read-out: inhibition zone (IZ)",> 15 mm
same,Limits against Coniophora puteana after leaching treatment,[7],1.8-3.4 kg of product per m^3 of wood
same,zone of inhibition at 0.5 %,"[8]; Poria monticola, 504 h, 0.5% content of the solution, read-out: inhibition zone (IZ)",2 to 3 mm
same,zone of inhibition at 1 %,"[8]; Poria monticola, 504 h, 1% content of the solution, read-out: inhibition zone (IZ)",6 to 8 mm
same,zone of inhibition at 2 %,"[8]; Poria monticola, 504 h, 2% content of the solution, read-out: inhibition zone (IZ)",10 to 12 mm
same,zone of inhibition at 0.1 % strength,"[9]; Proteus vulgaris, 24 h, 0.1% active substance in soaking solution",0 mm
same,zone of inhibition at 0.3 % strength,"[9]; Proteus vulgaris, 24 h, 0.3% active substance in soaking solution",0 mm
same,zone of inhibition at 0.5 % strength,"[9]; Proteus vulgaris, 24 h, 0.5% active substance in soaking solution",0 mm
same,zone of inhibition at 0.1 % strength,"[10]; 24 h, 0.1% active substance in soaking solution",8 mm
same,zone of inhibition at 0.3 % strength,"[10]; 24 h, 0.3% active substance in soaking solution",14 mm
same,zone of inhibition at 0.5 % strength,"[10]; 24 h, 0.5% active substance in soaking solution",19 mm
same,zone of inhibition at 0.1 % strength,"[11]; Bacillus subtilis, 24 h, 0.1% active substance in soaking solution",4 mm
same,zone of inhibition at 0.3 % strength,"[11]; Bacillus subtilis, 24 h, 0.3% active substance in soaking solution",4 mm
same,zone of inhibition at 0.5 % strength,"[11]; Bacillus subtilis, 24 h, 0.5% active substance in soaking solution",9 mm
CCC[CH2][Sn]([CH2]CCC)([CH2]CCC)[O]N(N=O)C1CCCCC1 [TBT-HDO],EC50 in Orfes,[1],0.035 mg/l of water
same,inhibition zone,[2]; [15],0 mm
same,inhibition zone,[2]; [16],0 mm
same,inhibition zone,[2]; [17],0 mm
same,inhibition zone (IZ),[3]; 0.5% content of the solution,10-12 mm
same,inhibition zone (IZ),[3]; 1% content of the solution,> 15 mm
same,inhibition zone (IZ),[3]; 2% content of the solution,> 15 mm
same,inhibition zone (IZ),[4]; 0.5% content of the solution,10-12 mm
same,inhibition zone (IZ),[4]; 1% content of the solution,> 15 mm
same,inhibition zone (IZ),[4]; 2% content of the solution,> 15 mm
same,Weight loss,[5],12.8%
same,"amount released into the environment, times higher than DBT-HDO","[5]; storage 6 days at 65° C., TBT-HDO vs DBT-HDO",six
same,inhibition zone (IZ),[6]; 0.5% content of the solution,> 15 mm
same,inhibition zone (IZ),[6]; 1% content of the solution,> 15 mm
same,inhibition zone (IZ),[6]; 2% content of the solution,> 15 mm
same,inhibition zone (IZ),[8]; 0.5% content of the solution,7-9 mm
same,inhibition zone (IZ),[8]; 1% content of the solution,15 mm
same,inhibition zone (IZ),[8]; 2% content of the solution,15 mm
same,inhibition zone,[9]; [15],6 mm
same,inhibition zone,[9]; [16],7 mm
same,inhibition zone,[9]; [17],7 mm
same,inhibition zone,[10]; [15],28 mm
same,inhibition zone,[10]; [16],32 mm
same,inhibition zone,[10]; [17],24 mm
same,inhibition zone,[11]; [15],17 mm
same,inhibition zone,[11]; [16],22 mm
same,inhibition zone,[11]; [17],18 mm
same,EC50 in Daphnia,[12],0.020 mg/l of water
same,LD50 oral (rats),[13],63 mg/kg of body wt.
same,biocidal activity,[14],very good biocidal activity
